Results taken from US20100190747A1, “Fused ring compound and use thereof” (priority 2009, published 2010).

Each compound was assayed against T1, delta-5-desaturase (Rattus norvegicus, UniProt Q920R3) (assay: Inhibitory activity on delta-5-desaturase (rat liver microsomal fraction, 14C-eicosatrienoic acid, TLC)). Details: test compound at 10 μM, room temperature, 120 minutes.
T1 construct: the microsomal fraction of a rat river (10 μl), which had been diluted to 3 mg/ml; from tissue; host or cells: rat liver microsomal fraction
Format: biochemical
Procedure: An inhibitory activity of a test compound on delta-5-desaturase was measured according to the method described herein below. To a DMSO solution of the test compound which had been previously prepared, secondary dilution was carried out by using a buffer (300 mM NaH2PO4 [pH 7.4], 450 mM KCl, 30 mM NaF, 9 mM MgCl2, 4.5 mM glutathione [reduced form], 0.3% BSA [fatty acid free, SIGMA]). This diluent compound (10 μl) was added in a 96-well deep well block made of polypropylene, and then the microsomal fraction of a rat river (10 μl), which had been diluted to 3 mg/ml by using a microsome buffer (10 mM Tris-HCl [pH 7.4], 1 mM EDTA, and 250 mM sucrose), was added thereto. The enzyme reaction was initiated by adding 10 μl of 9 mM NADH, 9 mM ATP, 0.9 mM CoA and 10 μCi/ml (8E,11E,14E)-(1-^14C)eicosa-8,11,14-trienoic acid (PerkinElmer Inc.). The enzyme reaction was carried out at room temperature for 120 minutes, and then terminated by addition of 2.5 M NaOH (10 μl). Upon the completion of the reaction, the plate was covered with plate seal and incubated overnight in a dry heater of which temperature was set at 55° C. for saponification. Based on Bligh & Dyer method which had been described in a known document, Canadian Journal of Biochemistry and Physiology (Can. J. Biochem. Physiol.), Vol. 37, page 911, 1959), the solvent extraction of fatty acid was carried out by adding 200 μl of formic acid:methanol:chloroform (1:6:3), keeping the mixture as a single layer for a while, stirring the mixture to a sufficient level, and adding 120 μl of pure water to separate the mixture into two layers. 10 μl of the bottom chloroform layer was spotted on a reverse phase TLC plate (RP-18, 1154230001, Merck Japan, Ltd.) and then developed with acetonitrile:pure water:acetic acid (95:4.5:0.5). The TLC plate obtained after drying was transferred to an Imaging Plate (Fuji Photo Film Co., Ltd.) for more than 5 hours. Detection was carried out by using BAS-5000 (Fuji Photo Film Co., Ltd.). Numerization of thus-obtained image was carried out by using Multi Gauge Ver 2.3 (Fuji Photo Film Co., Ltd.) and an inhibitory ratio (%) of the test compound at 10 μM on delta-5-desaturase was obtained.

T1 sequence (Q920R3 whole entry): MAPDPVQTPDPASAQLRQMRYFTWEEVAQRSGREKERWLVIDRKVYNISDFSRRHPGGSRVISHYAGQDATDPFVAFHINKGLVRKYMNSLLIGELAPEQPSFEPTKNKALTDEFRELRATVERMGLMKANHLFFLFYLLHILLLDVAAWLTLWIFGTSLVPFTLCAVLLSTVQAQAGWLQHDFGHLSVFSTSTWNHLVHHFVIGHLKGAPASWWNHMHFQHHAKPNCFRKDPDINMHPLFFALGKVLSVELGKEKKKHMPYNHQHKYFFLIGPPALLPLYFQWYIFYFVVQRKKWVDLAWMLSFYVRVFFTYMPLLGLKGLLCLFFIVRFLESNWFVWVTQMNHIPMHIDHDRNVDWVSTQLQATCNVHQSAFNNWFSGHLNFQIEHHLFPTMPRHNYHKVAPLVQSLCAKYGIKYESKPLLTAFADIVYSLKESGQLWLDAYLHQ

SMILES | inhibition at 10 µM
O=C1Cc2c(nc(OCCC(F)(F)F)n(-c3ccc(OCC(F)(F)F)cc3)c2=O)N1 [Example 341, 3-[4-(2,2,2-Trifluoroethoxy)phenyl]-2-(3,3,3-trifluoropropoxy)-5,7-dihydro-3H-pyrrolo[2,3-d]pyrimidine-4,6-dione] | 99%
O=C(CCCSc1nc2cc[nH]c2c(=O)n1-c1ccc(OCC(F)(F)F)cc1)N1CCSCC1 [Example 136, 2-[(4-Oxo-4-thiomorpholin-4-ylbutyl)sulfanyl]-3-[4-(2,2,2-trifluoroethoxy)phenyl]-3,5-dihydro-4H-pyrrolo[3,2-d]pyrimidin-4-one] | 99%
O=C1Cc2c(nc(SCC(F)(F)F)n(-c3ccc(OCC(F)(F)C(F)(F)F)cc3)c2=O)N1 [Example 347, 3-[4-(2,2,3,3,3-Pentafluoropropoxy)phenyl]-2-[(2,2,2-trifluoroethyl)sulfanyl]-5,7-dihydro-3H-pyrrolo[2,3-d]pyrimidine-4,6-dione] | 100%
NS(=O)(=O)CCCSc1nc2cc[nH]c2c(=O)n1-c1ccc(OCC(F)(F)F)cc1 [Example 120, 3-({4-Oxo-3-[4-(2,2,2-trifluoroethoxy)phenyl]-4,5-dihydro-3h-pyrrolo[3,2-d]pyrimidin-2-yl}sulfanyl)propane-1-sulfonamide] | 101%
CS(=O)(=O)CCCSc1nc2cc[nH]c2c(=O)n1-c1ccc(OCC(F)(F)F)cc1 [Example 80, 2-{[3-(Methylsulfonyl)propyl]sulfanyl}-3-[4-(2,2,2-trifluoroethoxy)phenyl]-3,5-dihydro-4H-pyrrolo[3,2-d]pyrimidin-4-one] | 98%
O=C1Cc2c(nc(OCC(F)F)n(-c3ccc(OCC(F)(F)F)cc3)c2=O)N1 [Example 275, 2-(2,2-Difluoroethoxy)-3-[4-(2,2,2-trifluoroethoxy)phenyl]-5,7-dihydro-3H-pyrrolo[2,3-d]pyrimidine-4,6-dione] | 99%
N#CCCNC(=O)CCCSc1nc2cc[nH]c2c(=O)n1-c1ccc(OCCC(F)(F)F)cc1 [Example 90, N-(2-cyanoethyl)-4-({4-oxo-3-[4-(3,3,3-trifluoropropoxy)phenyl]-4,5-dihydro-3H-pyrrolo[3,2-d]pyrimidin-2-yl}sulfanyl)butanamide] | 99%
CCOc1ccc(-n2c(SCCCC(=O)NCC#N)nc3cc[nH]c3c2=O)cc1 [Example 63, N-(cyanomethyl)-4-{[3-(4-ethoxyphenyl)-4-oxo-4,5-dihydro-3H-pyrrolo[3,2-d]pyrimidin-2-yl]sulfanyl}butanamide] | 98%
O=C(CCCSc1nc2cc[nH]c2c(=O)n1-c1ccc(OCC(F)(F)F)cc1)NCC(F)(F)F [Example 75, 4-({4-Oxo-3-[4-(2,2,2-trifluoroethoxy)phenyl]-4,5-dihydro-3H-pyrrolo[3,2-d]pyrimidin-2-yl}sulfanyl)-N-(2,2,2-trifluoroethyl)butanamide] | 99%
CC(C)Sc1nc2[nH]ccc2c(=O)n1-c1ccc(OCC(F)(F)F)cc1 [Example 251, 2-[(1-Methylethyl)sulfanyl]-3-[4-(2,2,2-trifluoroethoxy)phenyl]-3,7-dihydro-4H-pyrrolo[2,3-d]pyrimidin-4-one] | 97%
CCSc1nc2c(c(=O)n1-c1ccc(OCC3CC3)cc1)CC(=O)N2 [Example 300, 3-[4-(Cyclopropylmethoxy)phenyl]-2-(ethylsulfanyl)-5,7-dihydro-3H-pyrrolo[2,3-d]pyrimidine-4,6-dione] | 101%
O=c1c2[nH]ccc2nc(SCCOC2CCOCC2)n1-c1ccc(OCC(F)(F)F)cc1 [Example 159, 2-{[2-(Tetrahydro-2H-pyran-4-yloxy)ethyl]sulfanyl}-3-[4-(2,2,2-trifluoroethoxy)phenyl]-3,5-dihydro-4H-pyrrolo[3,2-d]pyrimidin-4-one] | 99%
CCCCOc1ccc(-n2c(SCCCC(=O)NCCC#N)nc3cc[nH]c3c2=O)cc1 [Example 91, 4-{[3-(4-Butoxyphenyl)-4-oxo-4,5-dihydro-3H-pyrrolo[3,2-d]pyrimidin-2-yl]sulfanyl}-N-(2-cyanoethyl)butanamide] | 100%
CC(C)(C)COc1ccc(-n2c(SCCCC(=O)NCCC#N)nc3cc[nH]c3c2=O)cc1 [Example 115, N-(2-cyanoethyl)-4-({3-[4-(2,2-dimethylpropoxy)phenyl]-4-oxo-4,5-dihydro-3H-pyrrolo[3,2-d]pyrimidin-2-yl}sulfanyl)butanamide] | 103%
CC(C)(CO)NC(=O)CCCSc1nc2cc[nH]c2c(=O)n1-c1ccc(OCC(F)(F)F)cc1 [Example 100, N-(2-hydroxy-1,1-dimethylethyl)-4-({4-oxo-3-[4-(2,2,2-trifluoroethoxy)phenyl]-4,5-dihydro-3H-pyrrolo[3,2-d]pyrimidin-2-yl}sulfanyl)butanamide] | 100%
CC(C)Sc1nc2c(c(=O)n1-c1ccc(OCC(F)(F)C(F)(F)F)cc1)CC(=O)N2 [Example 324, 2-[(1-Methylethyl)sulfanyl]-3-[4-(2,2,3,3,3-pentafluoropropoxy)phenyl]-5,7-dihydro-3H-pyrrolo[2,3-d]pyrimidine-4,6-dione] | 101%
O=C(CCCSc1nc2cc[nH]c2c(=O)n1-c1ccc(OCC(F)(F)F)cc1)N1CCS(=O)(=O)CC1 [Example 135, 2-{[4-(1,1-Dioxidothiomorpholin-4-yl)-4-oxobutyl]sulfanyl}-[4-(2,2,2-trifluoroethoxy)phenyl]-3,5-dihydro-4H-pyrrolo[3,2-d]pyrimidin-4-one] | 100%
O=c1c2[nH]ccc2nc(SCCCS(=O)(=O)NC2CC2)n1-c1ccc(OCC(F)(F)F)cc1 [Example 108, N-cyclopropyl-3-({4-oxo-3-[4-(2,2,2-trifluoroethoxy)phenyl]-4,5-dihydro-3H-pyrrolo[3,2-d]pyrimidin-2-yl}sulfanyl)propane-1-sulfonamide] | 101%
O=c1c2[nH]ccc2nc(SCCOC2CCOCC2)n1-c1ccc(OCC2CC2)cc1 [Example 147, 3-[4-(Cyclopropylmethoxy)phenyl]-2-{[2-(tetrahydro-2H-pyran-4-yloxy)ethyl]sulfanyl}-3,5-dihydro-4H-pyrrolo[3,2-d]pyrimidin-4-one] | 98%
N#CCCNC(=O)CCCSc1nc2[nH]ccc2c(=O)n1-c1ccc(OCC2CC2(F)F)cc1 (stereo not drawn) [Example 177, N-(2-cyanoethyl)-4-[(3-{4-[(2,2-difluorocyclopropyl)methoxy]phenyl}-4-oxo-4,7-dihydro-3H-pyrrolo[2,3-d]pyrimidin-2-yl)sulfanyl]butanamide] | 100%
CCOCCOCCSc1nc2cc[nH]c2c(=O)n1-c1ccc(OCC(F)(F)F)cc1 [Example 79, 2-{[2-(2-Ethoxyethoxy)ethyl]sulfanyl}-3-[4-(2,2,2-trifluoroethoxy)phenyl]-3,5-dihydro-4H-pyrrolo[3,2-d]pyrimidin-4-one] | 99%
CCSc1nc2c(c(=O)n1-c1ccc(OCC(F)(F)F)cc1)CC(=O)N2 [Example 265, 2-(Ethylsulfanyl)-3-[4-(2,2,2-trifluoroethoxy)phenyl]-5,7-dihydro-3H-pyrrolo[2,3-d]pyrimidine-4,6-dione] | 98%
O=c1c2cc[nH]c2nc(SCC2CC2)n1-c1ccc(OCC(F)(F)F)cc1 [Example 255, 2-[(Cyclopropylmethyl)sulfanyl]-3-[4-(2,2,2-trifluoroethoxy)phenyl]-3,7-dihydro-4H-pyrrolo[2,3-d]pyrimidin-4-one] | 101%
N#CCCNC(=O)CCCSc1nc2cc[nH]c2c(=O)n1-c1ccc(OCC2CC2(F)F)cc1 (stereo not drawn) [Example 95, N-(2-cyanoethyl)-4-[(3-{4-[(2,2-difluorocyclopropyl)methoxy]phenyl}-4-oxo-4,5-dihydro-3H-pyrrolo[3,2-d]pyrimidin-2-yl)sulfanyl]butanamide] | 100%
O=C(CCCSc1nc2cc[nH]c2c(=O)n1-c1ccc(OCC(F)(F)F)cc1)N1CCC(O)C1 (stereo not drawn) [Example 97] | 100%
CCOCCSc1nc2cc[nH]c2c(=O)n1-c1ccc(OCC2CC2)cc1 [Example 143, 3-[4-(Cyclopropylmethoxy)phenyl]-2-[(2-ethoxyethyl)sulfanyl]-3,5-dihydro-4H-pyrrolo[3,2-d]pyrimidin-4-one] | 101%

Same assay, conditions: test compound at 10 μM, room temperature, 120 minutes, 10 µM

SMILES | Inhibitory activity at 10 μM (%)
O=c1c2cc[nH]c2nc(OC2CCC2)n1-c1ccc(OCC(F)(F)F)cc1 [Example 283, 2-(Cyclobutyloxy)-3-[4-(2,2,2-trifluoroethoxy)phenyl]-3,7-dihydro-4H-pyrrolo[2,3-d]pyrimidin-4-one] | 101%
